From paper PMC11420707, “Functional and Immunologic Mapping of Domains of the Reticulocyte-Binding Protein Plasmodium vivax PvRBP2a” (The Journal of Infectious Diseases, 2024)
Residues, ends and D or L forms follow the SMILES beside them. *: point of attachment. Biotin = O=C1N[C@H]2[C@H](CS[C@H]2CCCCC(=O)*)N1

Assays:
[1] = test system: fresh human reticulocytes; assay: Reticulocyte-binding assay (flow cytometry); type: cell-based; settings: 15 µg/mL biotinylated peptide, 37°C 1 hour; for binding to reticulocytes (% of reticulocytes bound): CD71-enriched cord blood reticulocytes, streptavidin-APC and thiazole orange, 2 independent replicates
Method: Fresh human cord blood was enriched for reticulocytes with CD71 microbeads and MACS columns (supplementary methods). Reticulocytes were washed twice with cold phosphate-buffered saline, added to 15 µg/mL of peptide solution, and incubated at 37°C for 1 hour. Reticulocytes were then stained with streptavidin-APC and thiazole orange at 37°C for 1 hour, washed, and acquired on a flow cytometer.
Reticulocytes were enriched from the human cord blood through the selection of CD71+ reticulocytes, using human CD71 microbeads (Miltenyi Biotec, clone AC108.1). Around 1-2ml of blood at 50% haematocrit in PBS was passed through a LS column. After two washing steps using PBS, the reticulocytes were stained with reticulocyte stain (Sigma Aldrich New Methylene Blue) and viewed under the microscope to ensure >80% purity of reticulocytes after selection.

[2] = test system: sera from donors infected with P vivax; assay: ELISA of peptide antigenicity against donor sera; type: binding, human; settings: for antigenicity against the seropositive sera mix: individual peptides, pooled sera of 20 P vivax-infected donors 1:267; for antigenic in seropositive cases (cases/donors): individual seropositive sera 1:1000, 20 donors
Text: We next sought to identify the immunodominant epitopes within the PvRBP2a23-767 CD98-binding domain. Groups of 5 adjacent peptides each were pooled and examined for antigenicity against a mix of sera from 20 donors infected with P vivax (positive by blood smear microscopy) via enzyme-linked immunosorbent assay (Figure 2A). Binding against at least 15 negative donors (non–P vivax exposed) was also examined to control for nonspecific binding. […] To confirm their antigenicity, these peptides were then examined against individual seropositive or seronegative sera. PepLib 3 and PepLib 53 were antigenic in a minority of seropositive cases (7/20 and 2/20, respectively; Supplementary Figure 3B), whereas PepLib 52 was antigenic in most seropositive cases (18/20; Figure 2B). Thus, we identified PepLib 52 (PvRBP2a431-448) as the most reactive linear B-cell epitope in the CD98-binding region of PvRBP2a.
Figure 2. Identification of antigenic and functional linear epitopes of PvRBP2a. A, Peptides were pooled into groups of 5 and coated on streptavidin plates. Pooled sera were added from donors infected with Plasmodium vivax. Following washing, binding of peptides to donor sera was quantified with an anti-human horseradish peroxidase secondary antibody. The baseline was determined to be the mean + 3 SD of the reactivity of the seronegative sample pool to all peptide pools, and peptide pools showing a greater optical density (OD) value were deemed immunoreactive. B, The antigenicity of the antigenic peptide hit, PepLib_52, was confirmed by plasma from 20 donors who were seropositive and 22 who were seronegative. C, The effect of PvRBP2a-derived linear epitope peptides on P vivax invasion was examined on 5 P vivax clinical isolates. Selected CD98-binding PvRBP2a peptide candidates that were in cluster A (PepLib_25, PepLib_49) or cluster B/immunodominant (PepLib_41, PepLib_52), as well as negative control peptides (PepLib_50, PepLib_56) and positive control monoclonal antibodies (anti-Duffy 2C3, anti-CD98 HBJ127), were tested for their ability to inhibit P vivax invasion into reticulocytes. One well without addition of peptide or antibody served as a control for measurement of baseline reinvasion level. *P < .05 by 2-tailed t test with Shapiro-Wilk normality test.
Streptavidin-coated plates (Pierce) were blocked with 1% casein/1% BSA in 0.1% PBST overnight at 4°C, then coated with blocked with PvRBP2a-derived biotinylated peptides at 1:1000 dilution (approximately 15ug/ml) in 0.2% casein/0.2% BSA at room temperature for 1 hour. Pooled or individual donor sera was then applied at 1:267 (pooled) or 1:1000 (individual) dilution in 0.2% casein/0.2% BSA at room temperature for 1 hour, followed by secondary goat […] IgG-HRP at 1:1000 dilution in 0.1% casein/0.1% BSA at room temperature for 1 hour, then TMB substrate (Surmodics, BioFX® TMB One Component HRP Microwell Substrate) incubation for 5 minutes.

[3] = molecular target: PepLib_21 (PvRBP2a_(183-200)) (Plasmodium vivax); assay: BLI; biotinylated peptides (2 µM) loaded onto streptavidin-coated sensors, immersed in a solution of 200nM CD98
[4] = molecular target: PepLib_36 (PvRBP2a_(303-320)) (Plasmodium vivax); assay: as above
[5] = molecular target: PepLib_40 (PvRBP2a_(335-352)) (Plasmodium vivax); assay: as above
[6] = molecular target: PepLib_49 (PvRBP2a_(407-424)) (Plasmodium vivax); assay: as above
[7] = molecular target: soluble recombinant CD98 protein (Homo sapiens, UniProt P08195); assay: biochemical
Sequence of soluble recombinant CD98 protein (P08195 218-630): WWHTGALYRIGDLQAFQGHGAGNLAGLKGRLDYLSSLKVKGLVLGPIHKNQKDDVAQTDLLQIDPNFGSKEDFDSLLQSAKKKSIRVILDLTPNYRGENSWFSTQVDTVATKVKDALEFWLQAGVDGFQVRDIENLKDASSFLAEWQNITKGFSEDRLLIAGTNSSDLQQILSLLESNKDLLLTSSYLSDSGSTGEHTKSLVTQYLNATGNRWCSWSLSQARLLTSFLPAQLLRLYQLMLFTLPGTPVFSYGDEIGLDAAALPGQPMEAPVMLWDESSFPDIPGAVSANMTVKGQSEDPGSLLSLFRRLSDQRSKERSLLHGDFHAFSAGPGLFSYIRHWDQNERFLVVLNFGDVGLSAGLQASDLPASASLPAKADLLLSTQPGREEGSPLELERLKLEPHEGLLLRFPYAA
Method: PvRBP2a epitopes for reticulocyte and CD98 binding. […] Reticulocytes were blocked with the polyclonal rabbit anti-CD98 antibody (KE020) or a rabbit isotype control antibody for 15 minutes before staining with biotinylated peptide candidates and detection with streptavidin-APC. Reticulocytes were distinguished from normocytes via thiazole orange staining. […] (B) Candidate binding peptides were tested for direct binding to CD98 via biolayer interferometry. 2µM biotinylated peptides were loaded onto streptavidin-coated sensors, which was immersed in a solution of 200nM CD98 to assess binding. (C) Peptides with detectable binding in the initial binding screen were further analyzed for their binding kinetics to CD98 via biolayer interferometry, with 3 independent replicates. The mean and standard error for dissociation constant (KD), on-rate (ka) and off-rate (kd) are given.
Binding sensorgrams were collected on the Octet Red 96e system. Fresh streptavidin sensors were used without any regeneration step. Streptavidin sensor, without biotinylated peptide loading, but with maximum concentration of non-biotinylated CD98 was used as the reference. Kinetic binding assays were performed using Octet Data Acquisition version 10.0.1.3 at 37°C with orbital shaking speed of 1,000 rpm. The assay was carried out in PBS buffer supplemented with 0.05% Tween-20 and 1mg/mL BSA (PBST/BSA). For initial screening, the biosensor was sequentially dipped into wells containing 200µL of solution each: i) baseline, PBST/BSA (30 s), ii) loading, 2µM biotinylated peptide fragment or vehicle control (VC) (5 min), iii) washing, PBST/BSA (30 s), iv) blocking, 25µM biocytin (5 min) to minimize non-specific binding of CD98, v) washing, PBST/BSA (30 s), vi) association, 200 nM non-biotinylated CD98 (30 min) and vii) dissociation, PBST/BSA (15 min).

[8] = test system: P vivax invasion into human reticulocytes; assay: Inhibition of P vivax reticulocyte invasion; type: cell-based, Plasmodium vivax; settings: peptide 100 µg/mL, 5 P vivax clinical isolates, parasitemia at 24 hours versus well without peptide
Method: • Antibodies: anti-CD98 mouse IgG1 mAb HBJ127 [8] (Absolute Antibody) and anti-human DARC mouse IG1 mAb 2C3 [9] (Absolute Antibody); working concentration, 25 µg/mL • Cluster A or B PvRBP2a peptides: PepLib 25, 41, 49, 52; working concentration, 100 µg/mL • Control PvRBP2a peptides: PepLib 50, 56; working concentration, 100 µg/mL
Fresh/frozen blood isolates of P vivax were matured in vitro and late stages concentrated with MACS LD columns. Purified infected red blood cells were mixed with cord blood–derived CD71+ reticulocytes (sorted with CD71 beads + MACS LS columns). Infected red blood cell–reticulocyte mixtures were each mixed with an antibody/peptide as stated previously. Wells without peptide/antibody served as controls. All groups were cultivated in vitro as described before. Smears were made at the start (H0) to ensure that ring-stage parasitemia was 0% and 24 hours later (H24) to determine parasitemia (10 000 red blood cells counted). Statistically significant differences were identified by 2-tailed paired t test with Shapiro-Wilk normality test, performed in Prism 10.1.2 (GraphPad).

Molecule: KLLANLYNKLITYVSEKI [PepLib_53, biotinylated 18-mer of the PvRBP2a23-767 peptide library]
- binding to reticulocytes (% of reticulocytes bound) [1]: ≥ 10%
- antigenicity against the seropositive sera mix [2]: showed antigenicity
- antigenic in seropositive cases (cases/donors) [2]: 2/20

Molecule: soluble recombinant CD98 protein (from UniProt P08195 1-529) (receptor)
- Kd [3]: 54.9 nM
- Kd [4]: 47.5 nM
- Kd [5]: 70 nM
- Kd [6]: 90.3 nM

Molecule: CC[C@H](C)[C@H](NC(=O)[C@H](CCC(=O)O)NC(=O)[C@H](C)NC(=O)[C@H](Cc1ccccc1)NC(=O)[C@H](Cc1ccc(O)cc1)NC(=O)[C@H](CC(N)=O)NC(=O)[C@H](CCSC)NC(=O)[C@H](CCC(N)=O)NC(=O)[C@@H](NC(=O)CNC(=O)[C@H](CO)NC(=O)CNC(=O)[C@H](CO)NC(=O)CCCC[C@@H]1SC[C@@H]2NC(=O)N[C@@H]21)C(C)C)C(=O)N[C@@H](CCCCN)C(=O)N[C@@H](Cc1ccc(O)cc1)C(=O)N[C@@H](Cc1ccc(O)cc1)C(=O)N[C@H](C(=O)N[C@H](C(=O)N[C@@H](Cc1ccc(O)cc1)C(=O)N[C@@H](Cc1c[nH]cn1)C(=O)N[C@@H](Cc1ccc(O)cc1)C(=O)N[C@@H](CCC(=O)O)C(=O)O)[C@@H](C)O)[C@@H](C)CC [PepLib_21] (Biotin-SGSGVQMNYFAEIKYYITYHYE-OH)
- Kd [7]: 54.9 nM

Molecule: YVNYLSTLKASLQLGVTL [PepLib_39, biotinylated 18-mer of the PvRBP2a23-767 peptide library]
- binding to reticulocytes (% of reticulocytes bound) [1]: ≥ 10%

Molecule: NFYATYKFSLKRADTTTA [PepLib_50, biotinylated 18-mer of the PvRBP2a23-767 peptide library; negative control peptide]
- binding to reticulocytes (in words) [1]: do not show binding to reticulocytes
- inhibition of parasite invasion into reticulocytes, mean [8]: 10.4%

Molecule: TAALKEKGKLLANLYNKL [PepLib_52, biotinylated 18-mer of the PvRBP2a23-767 peptide library]
- binding to reticulocytes (in words) [1]: did not bind directly to reticulocytes
- antigenicity against the seropositive sera mix [2]: showed antigenicity
- antigenic in seropositive cases (cases/donors) [2]: 18/20
- inhibition of parasite invasion into reticulocytes, mean [8]: 60.2%

Molecule: LYFISKSESMISEFEDTF [PepLib_56, biotinylated 18-mer of the PvRBP2a23-767 peptide library; negative control peptide]
- binding to reticulocytes (in words) [1]: do not show binding to reticulocytes
- inhibition of parasite invasion into reticulocytes, mean [8]: 50%

Molecule: CC[C@H](C)[C@H](NC(=O)[C@H](CCC(=O)O)NC(=O)[C@H](Cc1ccc(O)cc1)NC(=O)[C@@H](NC(=O)[C@H](CC(=O)O)NC(=O)[C@@H](NC(=O)[C@H](CCC(=O)O)NC(=O)[C@H](CS)NC(=O)CNC(=O)[C@H](CO)NC(=O)CNC(=O)[C@H](CO)NC(=O)CCCC[C@@H]1SC[C@@H]2NC(=O)N[C@@H]21)[C@@H](C)O)[C@@H](C)O)C(=O)N[C@@H](CCSC)C(=O)N[C@@H](CC(C)C)C(=O)N[C@@H](CCC(=O)O)C(=O)N[C@H](C(=O)N[C@@H](Cc1ccc(O)cc1)C(=O)N[C@H](C(=O)N[C@@H](CCC(=O)O)C(=O)N[C@@H](CCCNC(=N)N)C(=O)N[C@H](C(=O)N[C@@H](CCCCN)C(=O)O)C(C)C)C(C)C)[C@@H](C)CC [PepLib_36] (Biotin-SGSGCETDTYEIMLEIYVERVK-OH)
- Kd [7]: 47.5 nM

Molecule: ADYARYSNLQIIDIKSKY [PepLib_60, biotinylated 18-mer of the PvRBP2a23-767 peptide library]
- binding to reticulocytes (% of reticulocytes bound) [1]: ≥ 10%

Molecule: WPLQDSLNESDKFEYTNG [PepLib_3, biotinylated 18-mer of the PvRBP2a23-767 peptide library]
- antigenicity against the seropositive sera mix [2]: showed antigenicity
- antigenic in seropositive cases (cases/donors) [2]: 7/20

Molecule: CC(C)C[C@H](NC(=O)[C@H](CO)NC(=O)[C@H](Cc1ccccc1)NC(=O)[C@H](CCCCN)NC(=O)[C@H](Cc1ccc(O)cc1)NC(=O)[C@@H](NC(=O)[C@H](C)NC(=O)[C@H](Cc1ccc(O)cc1)NC(=O)[C@H](Cc1ccccc1)NC(=O)[C@H](CC(N)=O)NC(=O)[C@H](C)NC(=O)[C@H](CO)NC(=O)[C@H](CC(=O)O)NC(=O)[C@H](Cc1ccccc1)NC(=O)[C@H](Cc1ccc(O)cc1)NC(=O)[C@H](CC(C)C)NC(=O)[C@H](CCCCN)NC(=O)[C@H](CCCCN)NC(=O)CNC(=O)[C@H](CO)NC(=O)CNC(=O)[C@H](CO)NC(=O)CCCC[C@@H]1SC[C@@H]2NC(=O)N[C@@H]21)[C@@H](C)O)C(=O)O [PepLib_49] (Biotin-SGSGKKLYFDSANFYATYKFSL-OH)
- Kd [7]: 90.3 nM

Molecule: CC[C@H](C)[C@H](NC(=O)[C@H](CCC(=O)O)NC(=O)[C@H](CCC(N)=O)NC(=O)[C@H](CCCCN)NC(=O)[C@@H](NC(=O)[C@H](CCCCN)NC(=O)[C@H](CC(C)C)NC(=O)[C@H](CCSC)NC(=O)[C@H](CC(C)C)NC(=O)[C@@H](NC(=O)[C@@H](NC(=O)CNC(=O)[C@H](CC(C)C)NC(=O)[C@H](CCC(N)=O)NC(=O)[C@H](CC(C)C)NC(=O)[C@H](CO)NC(=O)[C@H](C)NC(=O)[C@H](CCCCN)NC(=O)CNC(=O)[C@H](CO)NC(=O)CNC(=O)[C@H](CO)NC(=O)CCCC[C@@H]1SC[C@@H]2NC(=O)N[C@@H]21)C(C)C)[C@@H](C)O)C(C)C)C(=O)O [PepLib_40] (Biotin-SGSGKASLQLGVTLMLKVKQEI-OH)
- Kd [7]: 70 nM

Molecule: PLMSSIQNQINSCVPKKA [PepLib_25, biotinylated 18-mer of the PvRBP2a23-767 peptide library]
- binding to reticulocytes (% of reticulocytes bound) [1]: ≥ 10%
- inhibition of parasite invasion into reticulocytes, mean [8]: 49.6%

Molecule: TLMLKVKQEIDNNVTISA [PepLib_41, biotinylated 18-mer of the PvRBP2a23-767 peptide library]
- binding to reticulocytes (% of reticulocytes bound) [1]: ≥ 10%
- inhibition of parasite invasion into reticulocytes, mean [8]: −1.1%
